Data on 1 molecule can be found in US9783513B2, “STAT3 inhibitors and their anticancer use” (Ohio State Innovation Foundation, priority 2012, dated 2017).

What all share (assay type): cell-based, human
The test system of assay [1] is acetyl-STAT3. The assay can be described thus: Western blot, acetyl-STAT3. Particulars: 2 h. A general note: A western blot detects proteins with antibodies after separation by electrophoresis.
Assay [2] deals with IGF2, IGF-1 or LIF induced STAT3 phosphorylation. The assay can be described thus: Western blot, IGF and LIF induced STAT3 phosphorylation.
The subject of assay [3] is STAT1. The assay can be described thus: Western blot, STAT1 / Y701 phosphorylation. Here is the method:
RH30 cells were treated with DMSO, LY-5 (0.25-1 μM) and LY-3 (0.5-2.5 μM) prepared as a 20 mM stock solution in sterile DMSO at 60% to 80% confluence in the presence of 10% FBS for 24 hours. The sarcoma cell line EW8 was treated with DMSO and LY-5 (0.5-2.5 μM) prepared as a 20 mM stock solution in sterile DMSO at 60% to 80% confluence in the presence of 10% FBS for 24 hours. MCF-7 cells and DAOY cells were treated with DMSO, 25-50 ng/ml of IL-6, LY-5 (0.25-1 μM) or LY-3 (0.5-2.5 μM) prepared as a 20 mM stock solution in sterile DMSO, protein expressions of P-STAT3 (Tyr705) and STAT3 were tested. DAOY cells were treated with DMSO, 50 ng/ml of IFN-γ, LY-5 (1-5 μM) prepared as a 20 mM stock solution in sterile DMSO, protein expressions of P-STAT3 (Tyr705) and STAT3 were tested. […]
The cells were harvested and lysed in cold radioimmunoprecipitation assay (RIPA) lysis buffer containing […] and phosphatase inhibitor cocktail, and were subjected to SDS-PAGE. […] Membranes were analyzed using Enhanced Chemiluminescence Plus reagents and scanned with the Storm Scanner (Amersham Pharmacia Biotech, Inc., Piscataway, N.J.).
MCF-7 breast cancer cells were seeded in 10 cm plates and allowed to adhere overnight. […] The cells were harvested after 30 minutes and analyzed by Western blot.

In the case of `NS(=O)(=O)c1cccc2c1C(=O)C=C(Nc1cccnc1)C2=O` [LY-5, 5,8-dioxo-6-(pyridin-3-ylamino)-5,8-dihydronaphthalene-1-sulfonamide], the acetyl-STAT3 result in assay [1] (RD2, 0-2.5 μM) is “decrease in STAT3 phosphorylation and acetyl-STAT3”. Moreover, the acetyl-STAT3 entry in assay [1] (UW288-1 and UW426, 0-5 μM) is given as “inhibits”. Also, in assay [2] (DAOY, 0-5 μM, 2 h), the “IGF-1 induced STAT3 phosphorylation at Y705” value is “inhibits” and the “LIF induced STAT3 phosphorylation at Y705” value is “inhibits”. For the same molecule, the “IGF2 induced STAT3 phosphorylation” value in assay [2] (SJSA, 0-2.5 μM, 4 h) is given as “inhibits”. In assay [3] (DLD1, 0-2.5 μM, 2 h), the “IFN-γ induced STAT1 phosphorylation at Y701” value is on record as “does not inhibit”. Moreover, the “STAT1 expression and phosphorylation” value in assay [3] (MCF-7, OSM 50 ng/mL) was “effect the fold change of STAT1”.
